Test results reported in PubChem BioAssay (NCI).
Where “and” joins values, the source holds several entries; their conditions need not be identical. Equal entries are not always repeated.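 Here, GI50 denotes the concentration required for 50% inhibition of growth. TGI denotes the concentration required for complete inhibition of growth.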

Columns and labels:
Assay in all cases: NCI tumour cell line growth inhibition, 384-well format
SN12C renal = test system: SN12C renal
SNB-19 CNS = test system: SNB-19 CNS
OVCAR-8 ovarian = test system: OVCAR-8 ovarian
OVCAR-4 ovarian = test system: OVCAR-4 ovarian
KM12 colon = test system: KM12 colon
OVCAR-5 ovarian = test system: OVCAR-5 ovarian
786-0 renal = test system: 786-0 renal
HCT-116 colon = test system: HCT-116 colon
NCI-H322M lung = test system: NCI-H322M lung
OVCAR-3 ovarian = test system: OVCAR-3 ovarian
SF-539 CNS = test system: SF-539 CNS
EKVX NSCLC = test system: EKVX NSCLC
HS 578T breast = test system: HS 578T breast
RXF 393 renal = test system: RXF 393 renal
NCI-H522 lung = test system: NCI-H522 lung
LOX IMVI melanoma = test system: LOX IMVI melanoma
M14 melanoma = test system: M14 melanoma
NCI-H460 NSCLC = test system: NCI-H460 NSCLC
UACC-257 melanoma = test system: UACC-257 melanoma
UACC-62 melanoma = test system: UACC-62 melanoma
T-47D breast = test system: T-47D breast
SK-MEL-5 melanoma = test system: SK-MEL-5 melanoma
ACHN renal = test system: ACHN renal
SK-MEL-2 melanoma = test system: SK-MEL-2 melanoma
CAKI-1 renal = test system: CAKI-1 renal
MOLT-4 leukemia = test system: MOLT-4 leukemia
COLO 205 colon = test system: COLO 205 colon
A549 NSCLC = test system: A549 NSCLC
IGROV1 ovarian = test system: IGROV1 ovarian
SF-268 CNS = test system: SF-268 CNS
MDA-MB-468 breast = test system: MDA-MB-468 breast
NCI-H23 lung = test system: NCI-H23 lung
TK-10 renal = test system: TK-10 renal
SF-295 CNS = test system: SF-295 CNS
HCT-15 colon = test system: HCT-15 colon
SNB-75 CNS = test system: SNB-75 CNS
NCI-H226 lung = test system: NCI-H226 lung
SK-OV-3 ovarian = test system: SK-OV-3 ovarian
MCF7 breast = test system: MCF7 breast
DU-145 prostate = test system: DU-145 prostate
U251 glioblastoma = test system: U251 glioblastoma
MDA-MB-231 breast = test system: MDA-MB-231 breast
MDA-MB-435 melanoma = test system: MDA-MB-435 melanoma
HOP-62 NSCLC = test system: HOP-62 NSCLC
MALME-3M melanoma = test system: MALME-3M melanoma
RPMI-8226 leukemia = test system: RPMI-8226 leukemia
HL-60(TB) leukemia = test system: HL-60(TB) leukemia
HCC-2998 colon = test system: HCC-2998 colon
SK-MEL-28 melanoma = test system: SK-MEL-28 melanoma
NCI/ADR-RES ovarian = test system: NCI/ADR-RES ovarian
HT29 colon = test system: HT29 colon
SR leukemia = test system: SR leukemia
A498 renal = test system: A498 renal
CCRF-CEM leukemia = test system: CCRF-CEM leukemia
PC-3 prostate = test system: PC-3 prostate
K-562 leukemia = test system: K-562 leukemia
HOP-92 NSCLC = test system: HOP-92 NSCLC
BT-549 breast = test system: BT-549 breast
SW-620 colon = test system: SW-620 colon
UO-31 renal = test system: UO-31 renal

Oc1cccc(-c2nc(N3CCOCC3)c3oc4ncccc4c3n2)c1
GI50 (SN12C renal): 121 nM and 43.3 nM | GI50 (SNB-19 CNS): 1260 nM and 1380 nM | TGI (SNB-19 CNS): > 100000 nM and 24300 nM | GI50 (OVCAR-8 ovarian): 197 nM | TGI (OVCAR-8 ovarian): > 100000 nM | GI50 (OVCAR-4 ovarian): 350 nM and 87.4 nM | TGI (OVCAR-4 ovarian): 3690 nM and 613 nM | GI50 (KM12 colon): 312 nM and 305 nM | TGI (KM12 colon): > 100000 nM | GI50 (OVCAR-5 ovarian): 3540 nM and 2560 nM | GI50 ([…]-0 renal): 297 nM | TGI (786-0 renal): 1480 nM | GI50 (HCT-116 colon): 982 nM and 466 nM | TGI (HCT-116 colon): > 100000 nM | GI50 (NCI-H322M lung): 229 nM and 106 nM | TGI (NCI-H322M lung): 2030 nM and 642 nM | GI50 (OVCAR-3 ovarian): 54 nM and 118 nM | TGI (OVCAR-3 ovarian): 398 nM and 408 nM | GI50 (SF-539 CNS): 114 nM and 143 nM | TGI (SF-539 CNS): 1590 nM and 11400 nM | GI50 (EKVX NSCLC): 111 nM and 135 nM | TGI (EKVX NSCLC): 468 nM and 504 nM | GI50 (HS 578T breast): 61.9 nM and 86.1 nM | TGI (HS 578T breast): 288 nM and 617 nM | GI50 (RXF 393 renal): 95.7 nM and 207 nM | TGI (RXF 393 renal): 337 nM and 2860 nM | GI50 (NCI-H522 lung): 81.6 nM and 55.9 nM | TGI (NCI-H522 lung): 524 nM and 501 nM | GI50 (LOX IMVI melanoma): 318 nM and 207 nM | TGI (LOX IMVI melanoma): 1570 nM and 1060 nM | GI50 (M14 melanoma): 260 nM and 155 nM | GI50 (NCI-H460 NSCLC): 155 nM and 44.1 nM | GI50 (UACC-257 melanoma): 535 nM and 350 nM | TGI (UACC-257 melanoma): 5390 nM and 3810 nM | GI50 (UACC-62 melanoma): 305 nM and 400 nM | TGI (UACC-62 melanoma): 1460 nM and 2300 nM | GI50 (T-47D breast): 150 nM and 215 nM | GI50 (SK-MEL-5 melanoma): 103 nM and 77.6 nM | TGI (SK-MEL-5 melanoma): 498 nM and 279 nM | GI50 (ACHN renal): 70.7 nM and 77.9 nM | TGI (ACHN renal): 2440 nM and 563 nM | GI50 (SK-MEL-2 melanoma): 808 nM | TGI (SK-MEL-2 melanoma): 4720 nM | GI50 (CAKI-1 renal): 395 nM and 255 nM | TGI (CAKI-1 renal): 5220 nM and 12300 nM | GI50 (MOLT-4 leukemia): 23 nM and 39.1 nM | TGI (MOLT-4 leukemia): 230 nM and 195 nM | GI50 (COLO 205 colon): 4480 nM and 5550 nM | TGI (COLO 205 colon): 33600 nM and 27200 nM | GI50 (A549 NSCLC): 251 nM and 353 nM | TGI (A549 NSCLC): 1680 nM and 15400 nM | GI50 (IGROV1 ovarian): 115 nM and 155 nM | TGI (IGROV1 ovarian): 393 nM and 380 nM | GI50 (SF-268 CNS): 239 nM and 394 nM | TGI (SF-268 CNS): 10100 nM and 17900 nM | GI50 (MDA-MB-468 breast): 289 nM and 291 nM | TGI (MDA-MB-468 breast): 1140 nM and 1240 nM | GI50 (NCI-H23 lung): 306 nM and 324 nM | TGI (NCI-H23 lung): 16100 nM and 17700 nM | GI50 (TK-10 renal): 331 nM and 167 nM | TGI (TK-10 renal): 1920 nM and 695 nM | GI50 (SF-295 CNS): 1290 nM and 2370 nM | TGI (SF-295 CNS): 4020 nM and 8530 nM | GI50 (HCT-15 colon): 128 nM and 104 nM | TGI (HCT-15 colon): > 100000 nM and 38500 nM | GI50 (SNB-75 CNS): 33.4 nM and 53.7 nM | GI50 (NCI-H226 lung): 3470 nM and 2290 nM | TGI (NCI-H226 lung): 22400 nM and 5680 nM | GI50 (SK-OV-3 ovarian): 81.1 nM and 120 nM | GI50 (MCF7 breast): 208 nM and 99 nM | TGI (MCF7 breast): 23300 nM and 19500 nM | GI50 (DU-145 prostate): 154 nM and 112 nM | GI50 (U251 glioblastoma): 670 nM and 390 nM | TGI (U251 glioblastoma): > 100000 nM and 19600 nM | GI50 (MDA-MB-231 breast): 289 nM and 500 nM | TGI (MDA-MB-231 breast): 47600 nM and > 100000 nM | GI50 (MDA-MB-435 melanoma): 161 nM and 162 nM | TGI (MDA-MB-435 melanoma): 823 nM and 767 nM | GI50 (HOP-62 NSCLC): 429 nM and 231 nM | TGI (HOP-62 NSCLC): 3820 nM and 2810 nM | GI50 (MALME-3M melanoma): 40.3 nM and 83.5 nM | GI50 (RPMI-8226 leukemia): 116 nM and 44.9 nM | TGI (RPMI-8226 leukemia): 419 nM and 184 nM | GI50 (HL-60(TB) leukemia): 62.2 nM and 20.5 nM | TGI (HL-60(TB) leukemia): 978 nM and 217 nM | GI50 (HCC-2998 colon): 147 nM and 367 nM | TGI (HCC-2998 colon): 4250 nM and 8570 nM | GI50 (SK-MEL-28 melanoma): 96.3 nM and 123 nM | GI50 (NCI/ADR-RES ovarian): 240 nM and 151 nM | TGI (NCI/ADR-RES ovarian): > 100000 nM and 18000 nM | GI50 (HT29 colon): 3280 nM and 3420 nM | TGI (HT29 colon): > 100000 nM | GI50 (SR leukemia): 207 nM and 61.2 nM | TGI (SR leukemia): 890 nM and 205 nM | GI50 (A498 renal): 2050 nM and 598 nM | TGI (A498 renal): 4690 nM and 2870 nM | GI50 (CCRF-CEM leukemia): 202 nM | TGI (CCRF-CEM leukemia): 2730 nM | GI50 (PC-3 prostate): 40.8 nM and 39.3 nM | TGI (PC-3 prostate): 1730 nM and 299 nM | GI50 (K-562 leukemia): 327 nM | TGI (K-562 leukemia): > 100000 nM | GI50 (HOP-92 NSCLC): 50.6 nM and 111 nM | GI50 (BT-549 breast): 27.9 nM and 125 nM | TGI (BT-549 breast): 347 nM and 493 nM | GI50 (SW-620 colon): 561 nM | TGI (SW-620 colon): > 100000 nM | GI50 (UO-31 renal): 60.9 nM | TGI (UO-31 renal): 295 nM
